# Experimental data as given in US9723844B2, “Synergistic Bacillus thuringiensis subsp. aizawai, Bacillus thuringiensis subsp. kurstaki and chlorantraniliprole mixtures for diamondback moth, beet armyworm, sugarcane borer, soybean looper, corn earworm, cabbage looper, and southwestern corn borer control” (Valent BioSciences Corporation, priority 2015, dated 2017).
# Where two headings read alike, the source gives them in different places.
# Experiments:
# [1] = tested on: southwestern corn borer larvae; assay: Leaf dip test, southwestern corn borer larvae; type: in vivo, Diatraea grandiosella; conditions: foliar, Bta/Btk 1.69 ppm, chlorantraniliprole 0.0009 ppm, read-out: % Efficacy
# From the text: (§1) The following examples were used to determine the synergy of Bacillus thuringiensis subsp. aizawai, Bacillus thuringiensis subsp. kurstaki and chlorantraniliprole when controlling diamondback moth, beet armyworm, sugarcane borer, soybean looper, corn earworm, cabbage looper, and southwestern corn borer. Sympatico™ emulsifiable suspension (available from Valent BioSciences Corporation) was used as the source of Bacillus thuringiensis subsp. aizawai and Bacillus thuringiensis kurstaki. Sympatico™ contains about a 1:0.67 ratio of Bacillus thuringiensis subsp. kurstaki fermentation solids, spores and toxins to Bacillus thuringiensis subsp. aizawai fermentation solids, spores and toxins. Coragen® was used as the source of chlorantraniliprole. The present invention is not limited to the commercial products used in the examples. In each example below, the studies were conducted as follows.
# (§2) For these tests, standardized laboratory leaf dip methods were used to inoculate plant material with treatment(s). Dry, treated leaves were placed into Petri dishes (100×25 mm) containing filter paper wetted with 500 μl of distilled H2O (“dH2O”). Each dish was then infested with between 5 and 10 larvae, dependent on species. Efficacy ratings were taken at specified intervals. Synergy ratings were calculated for each test. […]
# corn earworm larvae = assay: Leaf dip test, corn earworm larvae; type: in vivo; conditions: Helicoverpa zea, foliar, Bta/Btk 5.4 ppm, chlorantraniliprole 0.0009 ppm, read-out: % Efficacy
# From the text: as §1, §2
# sugarcane borer larvae = assay: Leaf dip test, sugarcane borer larvae; type: in vivo; conditions: Diatraea saccharalis, foliar, Bta/Btk 1.69 ppm, chlorantraniliprole 0.0009 ppm, read-out: % Efficacy
# From the text: as §1, §2
# soybean looper larvae = assay: Leaf dip test, soybean looper larvae; type: in vivo, Chrysodeixis includens; conditions: foliar, Bta/Btk 0.54 ppm, chlorantraniliprole 0.045 ppm, read-out: % Efficacy
# From the text: as §1, §2
# diamondback moth larvae = assay: Leaf dip test, diamondback moth larvae; type: in vivo; conditions: Plutella xylostella, foliar, Bta/Btk 1.69 ppm, chlorantraniliprole 0.0009 ppm, read-out: % Efficacy
# From the text: as §1, §2
# cabbage looper larvae = assay: Leaf dip test, cabbage looper larvae; type: in vivo; conditions: Trichoplusia ni, foliar, Bta/Btk 1.69 ppm, chlorantraniliprole 0.0009 ppm, read-out: % Efficacy
# From the text: as §1, §2
# beet armyworm larvae = assay: Leaf dip test, beet armyworm larvae; type: in vivo; conditions: Spodoptera exigua, foliar, Bta/Btk 1.69 ppm, chlorantraniliprole 0.0009 ppm, read-out: % Efficacy
# From the text: as §1, §2
structure (smiles),measurement,setting,value
CNC(=O)c1cc(Cl)cc(C)c1NC(=O)c1cc(Br)nn1-c1ncccc1Cl [Chlorantraniliprole],Emax at 0.0009 ppm,[1]; 24 h after treatment,3%
same,Emax at 0.0009 ppm,[1]; 48 h after treatment,3%
same,Emax at 0.0009 ppm,corn earworm larvae; 24 h after treatment,3%
same,Emax at 0.0009 ppm,corn earworm larvae; 48 h after treatment,3%
same,Emax at 0.0009 ppm,sugarcane borer larvae; 24 h after treatment,3%
same,Emax at 0.0009 ppm,sugarcane borer larvae; 48 h after treatment,13%
same,Emax at 0.045 ppm,soybean looper larvae; 24 h after treatment,3%
same,Emax at 0.045 ppm,soybean looper larvae; 48 h after treatment,14%
same,Emax at 0.0009 ppm,diamondback moth larvae; 24 h after treatment,7%
same,Emax at 0.0009 ppm,diamondback moth larvae; 48 h after treatment,13%
same,Emax at 0.0009 ppm,cabbage looper larvae; 24 h after treatment,3%
same,Emax at 0.0009 ppm,cabbage looper larvae; 48 h after treatment,10%
same,Emax at 0.0009 ppm,beet armyworm larvae; 24 h after treatment,3%
same,Emax at 0.0009 ppm,beet armyworm larvae; 48 h after treatment,7%
